Assay results taken from ChEMBL document CHEMBL1765075, “Discovery and structure-activity relationship of 3-aminopyrid-2-ones as potent and selective interleukin-2 inducible T-cell kinase (Itk) inhibitors” (J Med Chem, 2011).
In brackets after ≈: the same amount, converted by molar mass.

Tests used:
[1] = Inhibition of AMPK
[2] = biological target: Mitogen-activated protein kinase 8 (Homo sapiens, UniProt P45983); assay: Inhibition of JNK1
[3] = biological target: Tyrosine-protein kinase ABL1 (Homo sapiens, UniProt P00519); assay: Inhibition of ABL
[4] = biological target: T1, Serine/threonine-protein kinase Chk1 (Homo sapiens, UniProt O14757); assay: Inhibition of CHK1
[5] = Solubility of the compound in phosphate buffer at pH 7.4 by high throughput shake flask assay; assay type: physicochemical
[6] = biological target: Protein kinase C beta type (Homo sapiens, UniProt P05771); assay: Inhibition of PKCbeta
[7] = biological target: Ribosomal protein S6 kinase alpha-1 (Homo sapiens, UniProt Q15418); assay: Inhibition of RSK1
[8] = biological target: Mitogen-activated protein kinase kinase kinase 8 (Homo sapiens, UniProt P41279); assay: Inhibition of COT
[9] = biological target: Receptor tyrosine-protein kinase erbB-4 (Homo sapiens, UniProt Q15303); assay: Inhibition of ERBB4
[10] = biological target: Macrophage colony-stimulating factor 1 receptor (Homo sapiens, UniProt P07333); assay: Inhibition of FMS
[11] = biological target: RAF proto-oncogene serine/threonine-protein kinase (Homo sapiens, UniProt P04049); assay: Inhibition of C-RAF
[12] = biological target: Glycogen synthase kinase-3 beta (Homo sapiens, UniProt P49841); assay: Inhibition of GSK3-beta
[13] = biological target: Proto-oncogene tyrosine-protein kinase ROS (Homo sapiens, UniProt P08922); assay: Inhibition of ROS
[14] = biological target: Macrophage-stimulating protein receptor (Homo sapiens, UniProt Q04912); assay: Inhibition of RON
[15] = biological target: Serine/threonine-protein kinase PLK3 (Homo sapiens, UniProt Q9H4B4); assay: Inhibition of PLK3
[16] = biological target: Inhibitor of nuclear factor kappa-B kinase subunit alpha (Homo sapiens, UniProt O15111); assay: Inhibition of IKKalpha
[17] = biological target: Serine/threonine-protein kinase TBK1 (Homo sapiens, UniProt Q9UHD2); assay: Inhibition of TBK1
Insulin receptor = Insulin receptor (Homo sapiens, UniProt P06213); assay: Inhibition of IR
[18] = biological target: Mast/stem cell growth factor receptor Kit (Homo sapiens, UniProt P10721); assay: Inhibition of c-Kit after 45 mins by radiometric phosphate incorporation assay
[19] = Permeability across apical to basolateral side of human Caco2 cells after 120 mins by LC-MS/MS analysis; assay type: ADME, cell-based; conditions: Caco-2, read-out: permeability
[20] = biological target: Calcium/calmodulin-dependent protein kinase type 1D (Homo sapiens, UniProt Q8IU85); assay: Inhibition of CAMK1D
[21] = Inhibition of PDK
[22] = biological target: Tyrosine-protein kinase BTK (Homo sapiens, UniProt Q06187); assay: Inhibition of BTK
[23] = biological target: Tyrosine-protein kinase CSK (Homo sapiens, UniProt P41240); assay: Inhibition of CSK
[24] = biological target: Serine/threonine-protein kinase 3 (Homo sapiens, UniProt Q13188); assay: Inhibition of MST2
[25] = biological target: T2, Tyrosine-protein kinase ITK/TSK (Homo sapiens, UniProt Q08881); assay: Inhibition of Itk after 40 mins by radiometric phosphate incorporation assay
T2 sequence (Q08881 whole entry): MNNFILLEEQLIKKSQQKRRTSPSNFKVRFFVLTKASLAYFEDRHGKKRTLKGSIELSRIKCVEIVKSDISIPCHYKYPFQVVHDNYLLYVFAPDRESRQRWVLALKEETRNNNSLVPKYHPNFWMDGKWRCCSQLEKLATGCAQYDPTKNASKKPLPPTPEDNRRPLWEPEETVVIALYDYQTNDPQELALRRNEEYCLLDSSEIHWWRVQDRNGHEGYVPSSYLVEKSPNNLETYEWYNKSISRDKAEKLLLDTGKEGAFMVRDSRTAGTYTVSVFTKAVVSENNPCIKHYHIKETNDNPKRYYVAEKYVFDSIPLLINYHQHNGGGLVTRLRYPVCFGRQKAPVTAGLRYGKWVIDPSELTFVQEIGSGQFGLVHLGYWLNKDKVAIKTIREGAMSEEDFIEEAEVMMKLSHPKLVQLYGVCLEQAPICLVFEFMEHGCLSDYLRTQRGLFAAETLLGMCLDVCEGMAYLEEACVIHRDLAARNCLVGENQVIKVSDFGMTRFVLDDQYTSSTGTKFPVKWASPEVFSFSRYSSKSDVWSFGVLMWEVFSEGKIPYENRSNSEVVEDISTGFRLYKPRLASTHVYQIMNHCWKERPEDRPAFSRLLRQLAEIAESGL

[26] = biological target: Dual specificity mitogen-activated protein kinase kinase 1 (Homo sapiens, UniProt Q02750); assay: Inhibition of MEK1
[27] = biological target: Rho-associated protein kinase 2 (Homo sapiens, UniProt O75116); assay: Inhibition of ROCK2
[28] = biological target: Mitogen-activated protein kinase kinase kinase 7 (Homo sapiens, UniProt O43318); assay: Inhibition of TAK1
[29] = biological target: Insulin-like growth factor 1 receptor (Homo sapiens, UniProt P08069); assay: Inhibition of IGF1R
[30] = Inhibition of CK1
[31] = biological target: T1, Serine/threonine-protein kinase Chk1; assay: Inhibition of CHEK1
[32] = biological target: Serine/threonine-protein kinase Sgk1 (Homo sapiens, UniProt O00141); assay: Inhibition of SGK1
[33] = biological target: Tyrosine-protein kinase JAK2 (Homo sapiens, UniProt O60674); assay: Inhibition of JAK2
[34] = biological target: Tyrosine-protein kinase HCK (Homo sapiens, UniProt P08631); assay: Inhibition of HCK
[35] = biological target: Tyrosine-protein kinase JAK3 (Homo sapiens, UniProt P52333); assay: Inhibition of JAK3
[36] = biological target: Dual specificity tyrosine-phosphorylation-regulated kinase 1A (Homo sapiens, UniProt Q13627); assay: Inhibition of DYRK1A
[37] = biological target: Tyrosine-protein kinase ZAP-70 (Homo sapiens, UniProt P43403); assay: Inhibition of ZAP70
[38] = biological target: Tyrosine-protein kinase Lyn (Homo sapiens, UniProt P07948); assay: Inhibition of LYNA
[39] = biological target: Tyrosine-protein kinase Fer (Homo sapiens, UniProt P16591); assay: Inhibition of FER
[40] = biological target: Platelet-derived growth factor receptor alpha (Homo sapiens, UniProt P16234); assay: Inhibition of PDGFRalpha
[41] = biological target: Serine/threonine-protein kinase pim-1 (Homo sapiens, UniProt P11309); assay: Inhibition of PIM1
[42] = biological target: Mitogen-activated protein kinase 3 (Homo sapiens, UniProt P27361); assay: Inhibition of ERK1
[43] = biological target: Indoleamine 2,3-dioxygenase 1 (Homo sapiens, UniProt P14902); assay: Inhibition of IDO1
[44] = Permeability across basolateral to apical side of human Caco2 cells after 120 mins by LC-MS/MS analysis; assay type: ADME, cell-based; conditions: Caco-2, read-out: permeability
[45] = biological target: Vascular endothelial growth factor receptor 2 (Homo sapiens, UniProt P35968); assay: Inhibition of KDR
[46] = biological target: Protein kinase C theta type (Homo sapiens, UniProt Q04759); assay: Inhibition of PKCtheta

T1 sequence (O14757 whole entry): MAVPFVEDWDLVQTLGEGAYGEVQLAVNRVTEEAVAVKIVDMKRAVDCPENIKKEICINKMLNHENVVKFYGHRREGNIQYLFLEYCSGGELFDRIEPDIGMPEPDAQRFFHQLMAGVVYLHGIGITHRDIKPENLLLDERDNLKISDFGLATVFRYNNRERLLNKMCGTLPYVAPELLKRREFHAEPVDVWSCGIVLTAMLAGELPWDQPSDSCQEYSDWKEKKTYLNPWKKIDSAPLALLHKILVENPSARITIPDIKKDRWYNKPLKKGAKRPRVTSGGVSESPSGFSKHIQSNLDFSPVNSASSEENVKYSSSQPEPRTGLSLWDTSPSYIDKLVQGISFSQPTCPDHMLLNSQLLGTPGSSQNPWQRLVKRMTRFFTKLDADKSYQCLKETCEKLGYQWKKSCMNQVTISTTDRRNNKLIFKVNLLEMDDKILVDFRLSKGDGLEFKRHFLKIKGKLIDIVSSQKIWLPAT
Macrophage colony-stimulating factor 1 receptor, sequence (P07333 whole entry, looked up): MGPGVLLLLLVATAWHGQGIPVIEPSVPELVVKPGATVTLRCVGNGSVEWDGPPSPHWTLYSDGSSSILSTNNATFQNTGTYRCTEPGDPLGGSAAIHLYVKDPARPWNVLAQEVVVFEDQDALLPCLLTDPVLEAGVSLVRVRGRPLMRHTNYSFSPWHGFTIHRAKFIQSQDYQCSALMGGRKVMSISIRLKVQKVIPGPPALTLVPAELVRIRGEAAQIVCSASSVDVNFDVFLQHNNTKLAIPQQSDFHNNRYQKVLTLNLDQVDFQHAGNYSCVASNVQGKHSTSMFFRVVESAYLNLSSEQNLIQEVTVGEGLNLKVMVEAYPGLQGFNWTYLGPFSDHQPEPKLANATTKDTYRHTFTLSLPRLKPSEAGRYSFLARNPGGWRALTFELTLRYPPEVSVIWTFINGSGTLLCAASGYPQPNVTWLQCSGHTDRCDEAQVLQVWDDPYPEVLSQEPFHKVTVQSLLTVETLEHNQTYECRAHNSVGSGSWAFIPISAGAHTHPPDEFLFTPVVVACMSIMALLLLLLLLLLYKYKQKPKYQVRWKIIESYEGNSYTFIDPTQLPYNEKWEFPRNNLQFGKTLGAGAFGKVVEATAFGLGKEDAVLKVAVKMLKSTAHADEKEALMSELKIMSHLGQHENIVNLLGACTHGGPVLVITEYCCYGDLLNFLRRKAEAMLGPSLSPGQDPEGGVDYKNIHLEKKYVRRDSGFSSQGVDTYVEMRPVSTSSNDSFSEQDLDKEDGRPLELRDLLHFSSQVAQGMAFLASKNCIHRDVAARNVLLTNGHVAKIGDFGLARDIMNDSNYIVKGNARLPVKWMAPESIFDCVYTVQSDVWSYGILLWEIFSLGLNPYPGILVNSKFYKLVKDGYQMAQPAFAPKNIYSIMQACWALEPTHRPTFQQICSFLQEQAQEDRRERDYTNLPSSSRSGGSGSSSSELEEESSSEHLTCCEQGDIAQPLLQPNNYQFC
Tyrosine-protein kinase HCK, sequence (P08631 whole entry): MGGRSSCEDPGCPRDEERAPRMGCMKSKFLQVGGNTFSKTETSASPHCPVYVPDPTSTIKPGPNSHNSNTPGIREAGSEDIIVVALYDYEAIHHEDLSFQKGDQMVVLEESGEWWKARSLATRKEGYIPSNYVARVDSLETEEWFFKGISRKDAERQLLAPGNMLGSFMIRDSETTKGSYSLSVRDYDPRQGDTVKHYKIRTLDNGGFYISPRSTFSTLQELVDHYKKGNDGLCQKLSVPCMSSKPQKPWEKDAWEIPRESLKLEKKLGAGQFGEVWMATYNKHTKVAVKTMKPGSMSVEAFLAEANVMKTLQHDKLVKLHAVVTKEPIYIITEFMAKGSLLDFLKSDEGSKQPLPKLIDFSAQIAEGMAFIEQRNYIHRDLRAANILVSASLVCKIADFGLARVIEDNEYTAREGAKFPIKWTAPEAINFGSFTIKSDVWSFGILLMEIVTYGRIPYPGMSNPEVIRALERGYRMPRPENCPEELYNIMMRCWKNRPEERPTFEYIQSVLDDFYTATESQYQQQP
Tyrosine-protein kinase ZAP-70, sequence (P43403 whole entry): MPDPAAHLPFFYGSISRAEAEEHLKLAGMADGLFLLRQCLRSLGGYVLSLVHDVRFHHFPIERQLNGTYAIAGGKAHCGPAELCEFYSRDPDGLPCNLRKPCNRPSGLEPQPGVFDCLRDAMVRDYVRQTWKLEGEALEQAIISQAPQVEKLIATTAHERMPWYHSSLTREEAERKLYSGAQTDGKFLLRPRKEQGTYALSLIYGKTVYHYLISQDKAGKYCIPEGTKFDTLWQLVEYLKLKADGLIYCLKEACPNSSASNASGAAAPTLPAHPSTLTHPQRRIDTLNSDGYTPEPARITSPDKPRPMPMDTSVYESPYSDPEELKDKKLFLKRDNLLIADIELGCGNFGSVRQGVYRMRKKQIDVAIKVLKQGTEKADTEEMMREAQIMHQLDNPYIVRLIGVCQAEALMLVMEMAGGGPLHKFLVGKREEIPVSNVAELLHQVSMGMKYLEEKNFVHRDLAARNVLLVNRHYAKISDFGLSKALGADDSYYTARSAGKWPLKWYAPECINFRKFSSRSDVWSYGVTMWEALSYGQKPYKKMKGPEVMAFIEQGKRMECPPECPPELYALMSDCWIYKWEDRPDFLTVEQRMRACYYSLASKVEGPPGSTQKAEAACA
RAF proto-oncogene serine/threonine-protein kinase, sequence (P04049 whole entry): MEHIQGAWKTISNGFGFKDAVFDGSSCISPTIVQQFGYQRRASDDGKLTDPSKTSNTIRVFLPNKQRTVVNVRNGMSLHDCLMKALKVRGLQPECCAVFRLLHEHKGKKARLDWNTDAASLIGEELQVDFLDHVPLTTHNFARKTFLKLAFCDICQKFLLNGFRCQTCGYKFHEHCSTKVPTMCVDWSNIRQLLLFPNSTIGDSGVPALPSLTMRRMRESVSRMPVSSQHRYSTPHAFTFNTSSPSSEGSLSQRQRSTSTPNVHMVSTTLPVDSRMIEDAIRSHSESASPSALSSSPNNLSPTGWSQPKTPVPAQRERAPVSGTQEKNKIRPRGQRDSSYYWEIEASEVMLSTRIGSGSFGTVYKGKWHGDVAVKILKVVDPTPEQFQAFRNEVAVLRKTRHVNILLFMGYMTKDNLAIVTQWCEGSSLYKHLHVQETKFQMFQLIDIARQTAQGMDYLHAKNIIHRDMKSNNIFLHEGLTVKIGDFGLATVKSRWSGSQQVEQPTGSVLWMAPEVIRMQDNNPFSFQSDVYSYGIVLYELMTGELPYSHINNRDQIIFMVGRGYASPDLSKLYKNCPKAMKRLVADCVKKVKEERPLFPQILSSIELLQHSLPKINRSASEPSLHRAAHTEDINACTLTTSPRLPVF
Mitogen-activated protein kinase kinase kinase 8, sequence (P41279 whole entry): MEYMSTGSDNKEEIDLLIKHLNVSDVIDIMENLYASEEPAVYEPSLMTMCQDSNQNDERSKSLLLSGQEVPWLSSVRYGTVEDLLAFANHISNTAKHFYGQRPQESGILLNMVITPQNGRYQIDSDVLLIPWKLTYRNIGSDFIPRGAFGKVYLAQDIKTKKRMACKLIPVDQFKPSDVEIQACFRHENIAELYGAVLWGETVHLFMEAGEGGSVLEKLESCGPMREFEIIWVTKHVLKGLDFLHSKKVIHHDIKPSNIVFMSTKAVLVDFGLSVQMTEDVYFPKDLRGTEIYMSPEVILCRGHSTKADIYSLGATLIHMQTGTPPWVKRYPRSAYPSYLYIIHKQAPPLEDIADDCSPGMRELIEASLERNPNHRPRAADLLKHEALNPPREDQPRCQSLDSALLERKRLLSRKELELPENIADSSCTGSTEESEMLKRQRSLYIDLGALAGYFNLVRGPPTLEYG
Ribosomal protein S6 kinase alpha-1, sequence (Q15418 whole entry): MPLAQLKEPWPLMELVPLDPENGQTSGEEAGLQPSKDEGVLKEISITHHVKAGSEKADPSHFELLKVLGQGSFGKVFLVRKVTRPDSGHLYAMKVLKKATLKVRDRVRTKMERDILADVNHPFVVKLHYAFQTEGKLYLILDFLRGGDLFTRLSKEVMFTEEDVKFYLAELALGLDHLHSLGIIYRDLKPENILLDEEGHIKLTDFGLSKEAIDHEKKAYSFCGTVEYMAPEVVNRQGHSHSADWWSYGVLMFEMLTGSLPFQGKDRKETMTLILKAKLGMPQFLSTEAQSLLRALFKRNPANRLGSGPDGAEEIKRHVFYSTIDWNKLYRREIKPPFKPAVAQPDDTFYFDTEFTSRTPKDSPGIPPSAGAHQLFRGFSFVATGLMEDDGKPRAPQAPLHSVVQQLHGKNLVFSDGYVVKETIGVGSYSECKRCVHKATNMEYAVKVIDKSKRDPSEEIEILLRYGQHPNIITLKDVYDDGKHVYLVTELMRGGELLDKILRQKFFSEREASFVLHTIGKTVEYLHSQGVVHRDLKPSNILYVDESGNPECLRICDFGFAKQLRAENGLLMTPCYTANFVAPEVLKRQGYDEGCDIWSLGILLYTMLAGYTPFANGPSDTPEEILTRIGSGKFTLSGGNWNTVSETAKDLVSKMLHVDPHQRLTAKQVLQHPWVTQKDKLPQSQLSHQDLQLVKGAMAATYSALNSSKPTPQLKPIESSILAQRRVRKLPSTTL
Mitogen-activated protein kinase kinase kinase 7, sequence (O43318 whole entry): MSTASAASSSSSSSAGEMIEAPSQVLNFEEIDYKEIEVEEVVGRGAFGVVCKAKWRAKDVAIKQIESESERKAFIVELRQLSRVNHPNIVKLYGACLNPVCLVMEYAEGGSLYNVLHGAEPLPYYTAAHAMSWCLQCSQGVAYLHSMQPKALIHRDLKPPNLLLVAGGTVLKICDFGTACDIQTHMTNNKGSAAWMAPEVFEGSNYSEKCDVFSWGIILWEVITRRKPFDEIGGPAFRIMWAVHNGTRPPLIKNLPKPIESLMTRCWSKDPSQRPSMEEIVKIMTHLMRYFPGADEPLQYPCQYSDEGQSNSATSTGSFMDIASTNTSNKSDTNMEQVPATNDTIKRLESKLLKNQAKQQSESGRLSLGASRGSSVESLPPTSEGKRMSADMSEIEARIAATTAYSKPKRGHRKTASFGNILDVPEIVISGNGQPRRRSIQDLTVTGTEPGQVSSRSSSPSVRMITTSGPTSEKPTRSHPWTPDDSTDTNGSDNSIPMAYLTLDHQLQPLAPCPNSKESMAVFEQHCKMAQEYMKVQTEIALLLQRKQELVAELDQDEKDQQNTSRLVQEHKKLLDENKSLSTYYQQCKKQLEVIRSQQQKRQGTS

Ki [1]: > 1000 nM | Ki [2]: > 1000 nM | Ki [3]: > 1000 nM | Ki [4]: > 1000 nM | solubility thermodynamic [5]: 150 µg/mL (≈ 317 µM) | Ki [6]: > 1000 nM | Ki [7]: > 1000 nM | Ki [8]: > 1000 nM | Ki [9]: > 1000 nM | Ki [10]: > 1000 nM | Ki [11]: > 2000 nM | Ki [12]: > 1000 nM | Ki [13]: > 1000 nM | Ki [14]: > 1000 nM | Ki [15]: > 1000 nM | Ki [16]: > 1000 nM | Ki [17]: > 1000 nM | Ki (Insulin receptor): > 1000 nM | Ki [18]: 200 nM | Papp A→B at 2 h [19]: 10.8 ×10⁻⁶ cm/s | Ki [20]: > 1000 nM | Ki [21]: > 1000 nM | Ki [22]: > 1000 nM | Ki [23]: > 1000 nM | Ki [24]: > 1000 nM | Ki [25]: 7 nM | Ki [26]: > 1000 nM | Ki [27]: > 1000 nM | Ki [28]: 860 nM | Ki [29]: > 1000 nM | Ki [30]: > 1000 nM | Ki [31]: > 1000 nM | Ki [32]: > 1000 nM | Ki [33]: 370 nM | Ki [34]: > 1000 nM | Ki [35]: 350 nM | Ki [36]: > 1000 nM | Ki [37]: > 2000 nM | Ki [38]: > 1000 nM | Ki [39]: > 1000 nM | Ki [40]: > 1000 nM | Ki [41]: > 1000 nM | Ki [42]: > 2000 nM | Ki [43]: > 1000 nM | Papp B→A at 2 h [44]: 32.4 ×10⁻⁶ cm/s | Ki [45]: 430 nM | Ki [46]: > 2000 nM
SMILES: CNc1cncc(-c2c[nH]c(=O)c(NC(=O)c3ccc(N4CCC[C@H]4CN4CCCC4)cc3)c2)n1
